Holding throughout (assay): NCI tumour cell line growth inhibition, 48 h
Assay [1] has as its system TK-10.
Assay [2] relates to SK-OV-3.
The test system of assay [3] is Malme-3M.
For assay [4], the system named is MOLT-4.
Assay [5] has as its system MCF7.
The subject of assay [6] is DU-145.
The subject of assay [7] is SK-MEL-28.
Assay [8] deals with COLO 205.
For assay [9], the system named is RXF 393.
Assay [10] has as its system OVCAR-4.
Assay [11] has as its system MDA-MB-435.
Assay [12] has as its system OVCAR-5.
In assay [13] the test system is SF-295.
For assay [14], the system named is IGROV-1.
Assay [15] concerns M14.
The test system of assay [16] is A549.
The subject of assay [17] is SF-539.
Assay [18] has as its system ACHN.
The test system of assay [19] is RPMI-8226.

Each structure is given as a SMILES string.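 These data come from cells grown in 96-well plates and exposed to compound for 48 hours at five concentrations. GI50 is the concentration that inhibits growth by half.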 Activity calls are given as the source filed them. No stated cut-off is given here; in the data, active = GI50 up to about 1.1 µM and inactive = higher.

Turning to `COc1ccccc1C#C/C=C\C#Cc1ccccc1C#N`, the GI50 is 20.7 µM (inactive) in assay [1]; 39.8 µM (inactive) in assay [2]; 9.98 µM (inactive) in assay [3]; 0.268 µM (active) in [4]; 4.61 µM (inactive) in assay [5]; 20 µM (inactive) in [6]. Also, the GI50 in assay [7] is 34.2 µM (inactive); in assay [8], 13.3 µM (inactive); in assay [9], 7.98 µM (inactive); in [10], 96.8 µM (inactive); in assay [11] it was 3.24 µM (inactive); in assay [12] it was 39.2 µM (inactive). Also, the GI50 in assay [13] was 6.58 µM (inactive); in assay [14], 10.4 µM (inactive); in [15] it was 6.08 µM (inactive); in [16] it was 6.89 µM (inactive); in [17], 18.6 µM (inactive); in assay [18], 13.9 µM (inactive).

As to `Cc1c(C)c2ccc(O)cc2[nH]c1=O`, the GI50 in assay [4], in assay [5], in [6], in [7], in assay [8] and in assay [9] was > 100 µM (inactive) in each case. For the same compound, the GI50 in [10], in assay [11], in assay [12], in [13], in [14] and in assay [15] was > 100 µM (inactive) throughout. For the same compound, the GI50 in [16], in assay [17], in [18] and in [19] was > 100 µM (inactive) each time.

`O=C(O)CCC(N/N=N/c1ccc(-c2nc3ccccc3[nH]2)cc1)C(=O)O` (centres undefined): the GI50 is > 100 µM (inactive) in assay [1]; 59.7 µM (inactive) in [2]; 31.6 µM (inactive) in assay [4]; 23.1 µM (inactive) in assay [5]; > 100 µM (inactive) in assay [6]; > 100 µM (inactive) in assay [7]. Moreover, the GI50 was > 100 µM (inactive) in assay [8]; 40.9 µM (inactive) in [9]; 66.5 µM (inactive) in assay [10]; 52.8 µM (inactive) in [11]; > 100 µM (inactive) in assay [12]; 21.6 µM (inactive) in [13]. The GI50 in assay [14] was 20.8 µM (inactive); in assay [15], 54.1 µM (inactive); in assay [16], 78.7 µM (inactive); in [17] it was > 100 µM (inactive); in [18], 28.2 µM (inactive); in assay [19], 17.9 µM (inactive).

Regarding `C1=CC(=[N+]2N=C(c3ccccc3)CC2c2ccccc2)C=CC1=C1SC(c2ccccc2)(c2ccccc2)c2ccccc21.[O-][Cl+3]([O-])([O-])[O-]` (centres undefined), the GI50 in assay [1], in assay [2], in [3], in [4], in [5] and in assay [6] was > 100 µM (inactive) each time. The GI50 in assay [7] was > 100 µM (inactive); in assay [9], > 100 µM (inactive); in assay [11], > 100 µM (inactive); in [12], > 100 µM (inactive); in assay [13] it was 61.8 µM (inactive); in [14] it was > 100 µM (inactive). Moreover, the GI50 is 60.8 µM (inactive) in [15], > 100 µM (inactive) in [16], > 100 µM (inactive) in assay [17] and > 100 µM (inactive) in assay [18].

Take `COc1cccc(C(C#N)NNC(=O)c2c(Cl)c(Cl)c(Cl)c(Cl)c2-c2nc3cc(C(=O)c4ccccc4)ccc3[nH]2)c1O` (centres undefined): the GI50 in [1] is 7.71 µM (inactive); in assay [2] it was 3.03 µM (inactive); in assay [4] it was 2.78 µM (inactive); in assay [5] it was 3.22 µM (inactive); in assay [6], 6.4 µM (inactive); in assay [7] it was 9.73 µM (inactive). In addition, the GI50 in assay [8] was 3.24 µM (inactive); in assay [9] it was 2.17 µM (inactive); in assay [10] it was 3.09 µM (inactive); in [11] it was 1.81 µM (inactive); in assay [12], 18.6 µM (inactive); in assay [13], 1.74 µM (inactive). Besides, the GI50 is 5.77 µM (inactive) in [14]; 3.66 µM (inactive) in [15]; 4.06 µM (inactive) in assay [16]; 2.63 µM (inactive) in [17]; 6.44 µM (inactive) in assay [18]; 3.55 µM (inactive) in [19].

As to `CC(C)(C)n1[nH]c(=O)n(C(C)(C)C)c1=O`, the GI50 in [1], in assay [2], in assay [4], in assay [5], in assay [6] and in assay [7] was > 100 µM (inactive) each time. Further, the GI50 in assay [8], in [9], in [10], in assay [11], in assay [12] and in assay [13] was > 100 µM (inactive) throughout. The GI50 in assay [15], in assay [16], in assay [17], in assay [18] and in assay [19] was > 100 µM (inactive) in each case.

With `CCOP(=O)(OCC)Oc1c(OC)c2[nH]c(C(=O)OC)cc2c2c(C(=O)O)c[nH]c12`, the GI50 in assay [1], in assay [2], in [3], in assay [4], in assay [5] and in [6] was > 100 µM (inactive) in each case. The GI50 in assay [7], in assay [8], in assay [9], in assay [10], in [11] and in [12] was > 100 µM (inactive) each time. Also, the GI50 in [13], in assay [14], in assay [15], in assay [16], in [17] and in assay [18] was > 100 µM (inactive) in each case.

As for `C=C(C)CCC(=O)[C@](C)(O)[C@H]1[C@H](O)C[C@@]2(C)[C@@H]3CCc4c(cc(OC5OC(CO)C(O)C(O)C5O)c(O)c4C)C3(C)C(=O)C[C@]12C` (some centres undefined), the GI50 in assay [1], in assay [2], in assay [3], in [4], in assay [5] and in assay [6] was > 100 µM (inactive) in each case. Moreover, the GI50 in [7], in assay [8], in assay [9], in assay [10], in [11] and in assay [12] was > 100 µM (inactive) each time. The GI50 in [13], in assay [14], in assay [15], in assay [16], in [17] and in assay [18] was > 100 µM (inactive) each time.

The values above are taken from ChEMBL document CHEMBL1201862, “PubChem BioAssay data set” (2004).
